Laboratory results published in patent US12065430B2, “Indazole compound or salt thereof” (TAIHO PHARMACEUTICAL CO., LTD., priority 2018, dated 2024).

How the values were obtained:
[1] = molecular target: G12C K-Ras4B (1-169) (Homo sapiens (Human), UniProt P01116, G12C); experiment: Test of compounds on whether to bind to KRASG12C (LC-MS compound binding rate); details: final compound concentration of 2 μM, 1 μM protein, 25° C. for 2 hours
Outline: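 K-Ras4B (1-169) WT and G12C (1 μM each, mixed) in 1×TBS, 0.1 mM TCEP incubated with compound (final 2 μM) 2 h at 25° C; quenched with 0.2% formic acid. Intact-protein LC-MS (ESI+, deconvoluted); binding rate = adduct signal/(adduct + unbound signal), giving selectivity over WT.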

[2] = tested on: NCI-H358 cells; experiment: Growth inhibition activity on KRAS-G12C mutant cell line (NCI-H358) (in vitro, CellTiter-Glo2.0); type: cell-based; details: Homo sapiens, NCI-H358, 72 h, 3-day culture in the presence of the compound
Method: NCI-H358 cells (ATCC, Cat #: CRL-5807), which are a KRAS-G12C mutant human lung cancer cell line, were suspended in a 10% fetal bovine serum-containing RPMI1640 medium (manufactured by Fujifilm Wako Pure Chemical Corporation.). The cell suspension was seeded into each well of a 384-well flat-bottom microplate and cultured in an incubator containing 5% CO2 gas at 37° C. for 1 day. The test compound was dissolved in DMSO, and diluted with DMSO to give a concentration 500 times the final concentration. The solution of the test compound in DMSO was diluted with the medium used for suspending cells and added to each well of the cell-culture plate to give a DMSO final concentration of 0.2%, followed by culture in an incubator containing 5% CO2 gas at 37° C. for another 3 days. The cell count after 3-day culture in the presence of the compound was measured using CellTiter-Glo2.0 (manufactured by Promega Corporation) in accordance with the protocol recommended by Promega Corporation. The growth inhibition rate was calculated from the following equation, and the concentration of the test compound at which 50% inhibition was achieved (IC50 (nM)) was determined. […] Growth Inhibition Rate (%)=(C−T)/(C)×100 • T: the emission intensity in a well into which a test compound was added. • C: the emission intensity in a well into which a test compound was not added.

Chain of G12C K-Ras4B (1-169) (P01116 other isoform, or with tags, fused parts or gaps G12C): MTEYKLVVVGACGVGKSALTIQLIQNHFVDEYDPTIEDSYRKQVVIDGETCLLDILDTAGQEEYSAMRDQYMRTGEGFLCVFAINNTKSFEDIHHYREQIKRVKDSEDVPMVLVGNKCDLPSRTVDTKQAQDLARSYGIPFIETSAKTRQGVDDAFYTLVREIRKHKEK

SMILES	binding rate for G12C K-Ras4B (1-169) [1]	IC50 [2]
C=CC(=O)N1CC(NC(=O)c2c(Cl)nc(CNc3n[nH]c4cc(Cl)c(C(C)(C)C)cc34)n2C(C)C)C1 [Example 35, N-(1-acryloylazetidin-3-yl)-2-(((5-(tert-butyl)-6-chloro-1H-indazol-3-yl)amino)methyl)-4-chloro-1-isopropyl-1H-imidazole-5-carboxamide]	B (a binding rate of 60% or more and less than 80% is rated “B,”)	0.067 µM
C=CC(=O)N1CC(NC(=O)c2c(Cl)nc(CNc3n[nH]c4cc(Cl)c(C(C)(C)C)cc34)n2C2CCCOC2)C1 (stereo not shown) [Example 104, N-(1-acryloylazetidin-3-yl)-2-(((5-(tert-butyl)-6-chloro-1H-indazol-3-yl)amino)methyl)-4-chloro-1-(tetrahydro-2H-pyran-3-yl)-1H-imidazole-5-carboxamide]	A (a binding rate of 80% or more is rated “A,”)	0.091 µM
C=CC(=O)N1CC(NC(=O)c2c(Cl)nc(CNc3n[nH]c4cc(Cl)c(C(C)(C)C)cc34)n2[C@@H]2C[C@@H](C)N(CC(F)F)C2)C1 [Example 126, N-(1-acryloylazetidin-3-yl)-2-(((5-(tert-butyl)-6-chloro-1H-indazol-3-yl)amino)methyl)-4-chloro-1-((3R,5R)-1-(2,2-difluoroethyl)-5-methylpyrrolidin-3-yl)-1H-imidazole-5-carboxamide]	A (a binding rate of 80% or more is rated “A,”)	0.035 µM
C=CC(=O)N1C[C@H](NC(=O)c2c(C)nc(CNc3n[nH]c4cc(Cl)c(C(C)(C)C)cc34)n2C)[C@@H](F)C1 [Example 64, N-((3S,4S)-1-acryloyl-4-fluoropyrrolidin-3-yl)-2-(((5-(tert-butyl)-6-chloro-1H-indazol-3-yl)amino)methyl)-1,4-dimethyl-1H-imidazole-5-carboxamide]	A (a binding rate of 80% or more is rated “A,”)	0.241 µM
C=CC(=O)N1CC(NC(=O)c2c(C(F)F)nc(CNc3n[nH]c4cc(Cl)c(C(C)(C)C)cc34)n2C2CCN(C(C)C)C2)C1.O=CO (stereo not shown) [Example 93, N-(1-acryloylazetidin-3-yl)-2-(((5-(tert-butyl)-6-chloro-1H-indazol-3-yl)amino)methyl)-4-(difluoromethyl)-1-(1-isopropylpyrrolidin-3-yl)-1H-imidazole-5-carboxamide formate]	A (a binding rate of 80% or more is rated “A,”)	0.04 µM
C=CC(=O)N1C[C@H](NC(=O)c2c(Cl)nc(CNc3n[nH]c4cc(Cl)c(C(C)(C)C)cc34)n2C)[C@@H](F)C1 [Example 76, N-((3S,4S)-1-acryloyl-4-fluoropyrrolidin-3-yl)-2-(((5-(tert-butyl)-6-chloro-1H-indazol-3-yl)amino)methyl)-4-chloro-1-methyl-1H-imidazole-5-carboxamide]	A (a binding rate of 80% or more is rated “A,”)	0.232 µM
C=CC(=O)N1CC(NC(=O)c2c(Cl)nc(CNc3n[nH]c4cc(Cl)c(C(C)(C)C)cc34)n2C2CCCC2)C1 [Example 105, N-(1-acryloylazetidin-3-yl)-2-(((5-(tert-butyl)-6-chloro-1H-indazol-3-yl)amino)methyl)-4-chloro-1-cyclopentyl-1H-imidazole-5-carboxamide]	A (a binding rate of 80% or more is rated “A,”)	0.076 µM
C=CC(=O)N1CC(NC(=O)c2c(C)nc(CNc3n[nH]c4cc(Cl)c(C(C)(C)C)cc34)n2C)C1 [Example 3, N-(1-acryloylazetidin-3-yl)-2-(((5-(tert-butyl)-6-chloro-1H-indazol-3-yl)amino)methyl)-1,4-dimethyl-1H-imidazole-5-carboxamide]	A (a binding rate of 80% or more is rated “A,”)	0.114 µM
C=CC(=O)N1CC(NC(=O)c2c(Cl)nc(CNc3n[nH]c4cc(Cl)c(C(C)(C)C)cc34)n2[C@@H]2CCN(c3ccccn3)C2)C1 [Example 124, (R)—N-(1-acryloylazetidin-3-yl)-2-(((5-(tert-butyl)-6-chloro-1H-indazol-3-yl)amino)methyl)-4-chloro-1-(1-(pyridin-2-yl)pyrrolidin-3-yl)-1H-imidazole-5-carboxamide]	A (a binding rate of 80% or more is rated “A,”)	0.019 µM
C=CC(=O)N1CC(NC(=O)c2c(Cl)nc(CNc3n[nH]c4cc(Cl)c(C(C)(C)C)cc34)n2C2CN(C(C)C)C2)C1 [Example 107, N-(1-acryloylazetidin-3-yl)-2-(((5-(tert-butyl)-6-chloro-1H-indazol-3-yl)amino)methyl)-4-chloro-1-(1-isopropylazetidin-3-yl)-1H-imidazole-5-carboxamide]	A (a binding rate of 80% or more is rated “A,”)	0.078 µM
C=CC(=O)N1CC(NC(=O)c2c(C)nc(CNc3n[nH]c4cc(Cl)c(C(C)(C)C)cc34)n2C(C)C)C1 [Example 13, N-(1-acryloylazetidin-3-yl)-2-(((5-(tert-butyl)-6-chloro-1H-indazol-3-yl)amino)methyl)-1-isopropyl-4-methyl-1H-imidazole-5-carboxamide]	A (a binding rate of 80% or more is rated “A,”)	0.135 µM
C=CC(=O)N1CC(NC(=O)c2c(Cl)nc(CNc3n[nH]c4cc(Cl)c(C(C)(C)C)cc34)n2C)C1 [Example 29, N-(1-acryloylazetidin-3-yl)-2-(((5-(tert-butyl)-6-chloro-1H-indazol-3-yl)amino)methyl)-4-chloro-1-methyl-1H-imidazole-5-carboxamide]	B (a binding rate of 60% or more and less than 80% is rated “B,”)	0.034 µM
C=CC(=O)N1CC(NC(=O)c2c(Cl)nc(CNc3n[nH]c4cc(Cl)c(C(C)(C)C)cc34)n2C2CCN(C)CC2)C1 [Example 103, N-(1-acryloylazetidin-3-yl)-2-(((5-(tert-butyl)-6-chloro-1H-indazol-3-yl)amino)methyl)-4-chloro-1-(1-methylpiperidin-4-yl)-1H-imidazole-5-carboxamide]	A (a binding rate of 80% or more is rated “A,”)	0.029 µM
C=CC(=O)N1CC(NC(=O)c2c(Cl)nc(CNc3n[nH]c4cc(Cl)c(C(C)(C)C)cc34)n2[C@@H]2CCN(C(C)C)C2)C1 [Example 114, (R)—N-(1-acryloylazetidin-3-yl)-2-(((5-(tert-butyl)-6-chloro-1H-indazol-3-yl)amino)methyl)-4-chloro-1-(1-isopropylpyrrolidin-3-yl)-1H-imidazole-5-carboxamide]	A (a binding rate of 80% or more is rated “A,”)	0.032 µM
C=CC(=O)N1CC(NC(=O)c2c(Cl)nc(CNc3n[nH]c4cc(Cl)c(C(C)(C)C)cc34)n2C2CCOCC2)C1 [Example 101, N-(1-acryloylazetidin-3-yl)-2-(((5-(tert-butyl)-6-chloro-1H-indazol-3-yl)amino)methyl)-4-chloro-1-(tetrahydro-2H-pyran-4-yl)-1H-imidazole-5-carboxamide]	A (a binding rate of 80% or more is rated “A,”)	0.054 µM
C=CC(=O)N1C[C@H](NC(=O)c2c(F)nc(CNc3n[nH]c4cc(Cl)c(C(C)(C)C)cc34)n2C)[C@@H](F)C1 [Example 75, N-((3S,4S)-1-acryloyl-4-fluoropyrrolidin-3-yl)-2-(((5-(tert-butyl)-6-chloro-1H-indazol-3-yl)amino)methyl)-4-fluoro-1-methyl-1H-imidazole-5-carboxamide]	A (a binding rate of 80% or more is rated “A,”)	0.142 µM
C=CCN1CC[C@@H](n2c(CNc3n[nH]c4cc(Cl)c(C(C)(C)C)cc34)nc(Cl)c2C(=O)NC2CN(C(=O)C=C)C2)C1 [Example 123, (R)—N-(1-acryloylazetidin-3-yl)-1-(1-allylpyrrolidin-3-yl)-2-(((5-(tert-butyl)-6-chloro-1H-indazol-3-yl)amino)methyl)-4-chloro-1H-imidazole-5-carboxamide]	A (a binding rate of 80% or more is rated “A,”)	0.021 µM
C=CC(=O)N1CC(NC(=O)c2c(Cl)nc(CNc3n[nH]c4cc(Cl)c(C(C)(C)C)cc34)n2[C@@H]2CCOC2)C1 [Example 102, (R)—N-(1-acryloylazetidin-3-yl)-2-(((5-(tert-butyl)-6-chloro-1H-indazol-3-yl)amino)methyl)-4-chloro-1-(tetrahydrofuran-3-yl)-1H-imidazole-5-carboxamide]	A (a binding rate of 80% or more is rated “A,”)	0.069 µM
C=CC(=O)N1C[C@@H](CO)[C@@H](NC(=O)c2c(C)nc(CNc3n[nH]c4cc(Cl)c(C(C)(C)C)cc34)n2C)C1 [Example 58, N-((3R,4R)-1-acryloyl-4-(hydroxymethyl)pyrrolidin-3-yl)-2-(((5-(tert-butyl)-6-chloro-1H-indazol-3-yl)amino)methyl)-1,4-dimethyl-1H-imidazole-5-carboxamide]	B (a binding rate of 60% or more and less than 80% is rated “B,”)	
